Consider 6 molecules from article PMC6943441, “The Meta-Position of Phe^4 in Leu-Enkephalin Regulates Potency, Selectivity, Functional Activity, and Signaling Bias at the Delta and Mu Opioid Receptors” (Molecules, 2019).

The target in data set [1] is T1, µOR (Homo sapiens, UniProt P35372). Put plainly: Competition radioligand binding, [3H]DAMGO. The protocol:
(§1) Next, 100 µL of membrane suspension containing 7 µg protein was added to the agonist wells and incubated for 90 min at room temperature. The reaction mixture was then filtered over a GF-B filter plate (Perkin Elmer) followed by four quick washes with ice-cold 50 mM Tris HCl. The plate was dried overnight, after which 50 µL scintillation fluid (Ultimagold uLLT) was added and radioactivity was counted on a Packard TopCount NXT scintillation counter. All working solutions were prepared in a radioligand assay buffer containing 50 mM Tris HCl, 10 mM MgCl2, and 1 mM ethylenediaminetetraacetic acid at pH 7.4.

The target of data set [2] is T2, δOR (Homo sapiens, UniProt P41143). The data set can be described thus: PathHunter β-arrestin 2 recruitment assay in CHO cells. In general terms: Arrestin recruitment assays detect the binding of arrestin to an activated receptor.
Procedure: (§2) In brief, for cAMP inhibition assays HEK 293 (Life Technologies, Grand Island, NY, USA) cells were transiently transfected in a 1:3 ratio with FLAG-mouse δOR, or HA-mouse µOR and pGloSensor22F-cAMP plasmids (Promega, Madison, WI, USA) using Xtremegene9 (Sigma). Two days post-transfection cells (20,000 cells/well, 7.5 µL) were seeded in low volume Greiner 384-well plates (#82051-458, VWR, Batavia, IL, USA) and were incubated with Glosensor reagent (Promega, 7.5 µL, 2% final concentration) for 90 min at room temperature. […] For β-arrestin recruitment assays, CHO-human µOR PathHunter β-arrestin 2 cells or CHO-human δOR PathHunter β-arrestin 2 cells (DiscoverX, Fremont, CA, USA) were plated (2,500 cells/well, 10 µL) one day prior to stimulation with 2.5 µL drug solution for 90 min at 37 °C/5% CO2, after which cells were incubated with 6 µL cell PathHunter assay buffer (DiscoverX) for 60 min at room temperature as per the manufacturer’s protocol. Luminescence for each of these assays was measured using a FlexStation3 plate reader (Molecular Devices, Sunnyvale, CA, USA).
(§3) All data are presented as means ± standard error of the mean, and analysis was performed using GraphPad Prism 8 software (GraphPad Software, La Jolla, CA). For in vitro assays, nonlinear regression was conducted to determine pIC50 (cAMP) or pEC50 (β-arrestin 2 recruitment). […] The averages of each independent run were counted as a single experiment and combined to provide a composite curve in favor of providing a ‘representative’ curve. In each experimental run, a positive control/reference compound was utilized to allow the data to be normalized and to calculate the log bias value. A minimum of three independent values were obtained for each compound in each of the cellular assays.
The next data set is described as follows: Rat plasma stability. The note with it: for Degradation Products (First Appearance): rat plasma, UPLC-mass spectrometry, time of first appearance in parentheses; for half-life: rat, plasma. As for the experimental part:
Peptides were synthesized using an Aapptec Focus XC automated peptide synthesizer coupled with a heating system using a solid phase peptide synthesis protocol using Fmoc chemistry. Preparative RP-HPLC was performed using an appropriate column and solvent system (described below) and final purity of peptides was determined by UV area % from UPLC analysis. Peptides were purified by Teledyne ISCO EZ Prep system on RediSep® C18 Prep column (30 × 250 mm, 100 Å). […] Plasma stability was also assessed using the above UPLC column and solvent gradient program using a Waters H class Plus Acquity UPLC system coupled with a QDa detector using protocol B.
Sprague Dawley rat plasma containing K2-ethylenediaminetetraacetic acid (Innovative Research, MI, USA) was transferred into 300 µL aliquots and stored at −20 °C until use. […] After adding analog, an aliquot of the mixture was removed at each indicated time point (0, 5, 10, 15, 20, 30, 60, 120, 240 min) and immediately quenched with 100 μL of a methanol solution containing 20 μM Fmoc-Leu-OH as an internal standard. […] Then, the filtrate was transferred into vials and a 5 μL sample of the resulting solution was analyzed on an UPLC system coupled with a QDa detector. […] Determination of half-life (t1/2) was carried out by using the GraphPad Prism one-phase decay method.

For a further data set, the target named is T3, FLAG-mouse δOR (Mus musculus, UniProt P32300).
T3 construct: FLAG; expressed in transfected cells; host or cells: HEK 293
Put plainly: cAMP GloSensor inhibition assay in HEK 293 cells. Type of data set: cell-based. The note with it: for IC50: HEK 293, forskolin 30 µM, read-out: cAMP IC50 (nM) δOR; for G Protein Selectivity (δOR vs µOR): cAMP potency δOR vs µOR.

The target of another data set is T4, HA-mouse µOR (Mus musculus, UniProt P42866).
T4 construct: HA; expressed in transfected cells; host or cells: HEK 293
Put plainly: cAMP GloSensor inhibition assay in HEK 293 cells. The format is cell-based. As to conditions: HEK 293, forskolin 30 µM; read-out: cAMP IC50 (nM) µOR.

Data set [3] deals with T1, µOR. The data set can be described thus: cell-based. Type of data set: cell-based. As to conditions: CHO PathHunter; read-out: β-Arrestin 2 EC50 (nM) µOR.
Procedure: as §2, §3
The target in data set [4] is T2, δOR. Put plainly: Competition radioligand binding, [3H]DPDPE. The note with it: for Binding Selectivity (δOR vs µOR): ratio of Ki values. The protocol:
as §1

Data set [5] concerns the target T2, δOR. As to conditions: cited from earlier work.
Data set [6] addresses T2, δOR. The note with it: at best; cited from earlier work.
For data set [7], the target named is T1, µOR. As to conditions: BRET (β-arrestin 2) and EPAC (cAMP) assays; footnote prints reference 26; cited from earlier work.
In data set [8] the target is T2, δOR. The note with it: cited from earlier work. The source holds these as a separate data set.
The target in data set [9] is T2, δOR. The note with it: literature value; cited from earlier work.

Where two headings read alike, the source gives them in different places. Square brackets hold non-standard residues; d marks the D form. Peptide text beside a SMILES is read from it. 2Pal = N[C@@H](Cc1ccccn1)C(=O)O; 3Pal = N[C@@H](Cc1cccnc1)C(=O)O; 4Pal = N[C@@H](Cc1ccncc1)C(=O)O

T1 sequence (P35372 whole entry): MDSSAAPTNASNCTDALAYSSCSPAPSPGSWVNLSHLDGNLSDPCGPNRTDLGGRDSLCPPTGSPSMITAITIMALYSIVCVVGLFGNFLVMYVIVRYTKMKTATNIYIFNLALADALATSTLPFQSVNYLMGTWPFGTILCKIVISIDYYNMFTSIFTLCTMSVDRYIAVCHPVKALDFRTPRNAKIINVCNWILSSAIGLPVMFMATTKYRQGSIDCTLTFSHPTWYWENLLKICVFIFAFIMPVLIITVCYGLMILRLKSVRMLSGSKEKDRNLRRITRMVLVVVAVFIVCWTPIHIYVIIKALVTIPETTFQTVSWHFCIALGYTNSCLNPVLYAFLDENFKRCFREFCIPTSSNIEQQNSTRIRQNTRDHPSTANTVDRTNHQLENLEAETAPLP
T2 sequence (P41143 whole entry): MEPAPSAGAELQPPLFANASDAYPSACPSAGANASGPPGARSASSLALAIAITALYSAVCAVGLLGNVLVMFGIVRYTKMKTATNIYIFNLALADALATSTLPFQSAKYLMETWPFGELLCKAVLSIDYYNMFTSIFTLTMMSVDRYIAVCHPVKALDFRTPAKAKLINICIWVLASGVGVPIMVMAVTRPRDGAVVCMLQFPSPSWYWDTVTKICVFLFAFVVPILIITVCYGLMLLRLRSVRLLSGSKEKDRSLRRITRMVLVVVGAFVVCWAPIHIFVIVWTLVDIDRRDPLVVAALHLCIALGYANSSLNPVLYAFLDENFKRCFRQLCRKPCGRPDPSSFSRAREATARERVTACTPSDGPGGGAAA
T4 sequence (P42866 whole entry): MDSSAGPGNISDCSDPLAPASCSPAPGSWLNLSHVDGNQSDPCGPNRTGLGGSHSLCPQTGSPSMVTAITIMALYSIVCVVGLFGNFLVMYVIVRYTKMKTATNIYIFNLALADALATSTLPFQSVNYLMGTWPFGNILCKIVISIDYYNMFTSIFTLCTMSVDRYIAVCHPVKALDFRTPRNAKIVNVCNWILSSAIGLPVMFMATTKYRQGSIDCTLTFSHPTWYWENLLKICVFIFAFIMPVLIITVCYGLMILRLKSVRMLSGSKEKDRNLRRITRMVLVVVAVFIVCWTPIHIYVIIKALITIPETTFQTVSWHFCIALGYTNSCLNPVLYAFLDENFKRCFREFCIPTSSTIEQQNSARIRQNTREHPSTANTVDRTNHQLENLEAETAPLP
T3 sequence (P32300 whole entry): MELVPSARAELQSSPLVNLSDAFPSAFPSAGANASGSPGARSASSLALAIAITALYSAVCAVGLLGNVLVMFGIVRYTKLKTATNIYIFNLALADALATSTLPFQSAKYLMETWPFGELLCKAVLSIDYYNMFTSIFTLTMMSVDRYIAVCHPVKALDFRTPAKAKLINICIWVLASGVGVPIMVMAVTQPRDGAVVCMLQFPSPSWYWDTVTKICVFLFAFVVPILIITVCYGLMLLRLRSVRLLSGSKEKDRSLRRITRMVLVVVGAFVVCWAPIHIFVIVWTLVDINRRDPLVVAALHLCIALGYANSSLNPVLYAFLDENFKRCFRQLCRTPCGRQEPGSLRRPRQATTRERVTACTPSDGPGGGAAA
Procedure for FLAG-mouse δOR: as §2, §3
Procedure for HA-mouse µOR: as §2, §3

As usually defined, the Ki is a dissociation constant, usually derived from enzyme kinetics or from competition with a known ligand. Low readings indicate tighter binding, high ones weaker binding. What is called EC50 is the midpoint of the concentration-response curve. As usually defined, the half-life is the time in which the quantity being followed falls by half. Higher therefore signals slow loss. By IC50 is commonly meant the point on the concentration scale where inhibition reaches its midpoint. For the molecule `CC(C)C[C@H](NC(=O)[C@H](Cc1cccnc1)NC(=O)CNC(=O)CNC(=O)[C@@H](N)Cc1ccc(O)cc1)C(=O)O` [Compound 1k] (H-YGG[3Pal]L-OH; N-terminus and C-terminus assumed), the inhibition constant (Ki) came out at 158 nM at µOR [1] and 33.1 nM at δOR [4]. In addition, the 50% effective concentration (EC50) came out at 1120 nM at δOR [2] and 41700 nM on µOR [3]. Moreover, in the data set “Rat plasma stability”, the “Degradation Products (First Appearance)” value is on record as “(3-pyridyl)Ala-Leu (10 min) Gly-Gly-(3-pyridyl)Ala-Leu (20 min)”. Also, the half-life in “Rat plasma stability” is 54 min. Further, the half-inhibitory concentration (IC50) at FLAG-mouse δOR was 47.9 nM; at HA-mouse µOR, 234 nM. The “G Protein Selectivity (δOR vs µOR)” value at FLAG-mouse δOR was 4.9. Also, on δOR [4], the “Binding Selectivity (δOR vs µOR)” value is recorded as 4.8.

`CC(C)C[C@H](NC(=O)[C@H](Cc1ccncc1)NC(=O)CNC(=O)CNC(=O)[C@@H](N)Cc1ccc(O)cc1)C(=O)O` [Compound 1l] (H-YGG[4Pal]L-OH; N-terminus and C-terminus assumed): the Ki is 38.9 nM at µOR [1] and 20.4 nM on δOR [4]. Moreover, the EC50 on δOR [2] is 398 nM; at µOR [3], 37200 nM. Moreover, in “Rat plasma stability”, the “Degradation Products (First Appearance)” value is “(4-pyridyl)Ala-Leu (10 min) Gly-Gly-(4-pyridyl)Ala-Leu (30 min)”. Moreover, the half-life in the data set “Rat plasma stability” was determined as 78.1 min. The IC50 on FLAG-mouse δOR came out at 30.2 nM; on HA-mouse µOR, 302 nM. At FLAG-mouse δOR, the “G Protein Selectivity (δOR vs µOR)” value was 10. The “Binding Selectivity (δOR vs µOR)” value on δOR [4] came to 1.9.

On µOR [1], `CC(C)C[C@H](NC(=O)[C@H](Cc1ccccn1)NC(=O)CNC(=O)CNC(=O)[C@@H](N)Cc1ccc(O)cc1)C(=O)O` [Compound 1j] (H-YGG[2Pal]L-OH; N-terminus and C-terminus assumed) had a Ki of 9.12 nM. This molecule also gave an EC50 on δOR [2] of 100 nM. Besides, in “Rat plasma stability”, the “Degradation Products (First Appearance)” value was “(2-pyridyl)Ala-Leu (5 min) Gly-Gly-(2-pyridyl)Ala-Leu (30 min)” and the half-life was determined as 26.8 min. On FLAG-mouse δOR, the concentration for half-maximal inhibition (IC50) came to 4.57 nM and the “G Protein Selectivity (δOR vs µOR)” value amounted to 8.9. Also, the IC50 at HA-mouse µOR came out at 40.7 nM. In addition, the 50% effective concentration (EC50) on µOR [3] amounted to 1350 nM. In addition, at δOR [4], the affinity, expressed as Ki, was 6.17 nM and the “Binding Selectivity (δOR vs µOR)” value is on record as 1.5.

Regarding aza-β-homoleucine-enkephalin, the “β-arrestin 2 efficacy” value at δOR [5] was 64%. In addition, the “selectivity for δORs over µORs” value at δOR [6] is at most 10 fold. Further, the “Bias Factor µOR (LE = Ref)” value on µOR [7] was 1.2. Also, the “Bias Factor δOR” value at δOR [8] (BRET (β-arrestin 2) and EPAC (cAMP) assays, footnote prints reference 26) is reported as 5.2; on δOR [8] (BRET (β-arrestin 2) and EPAC (cAMP) assays, footnote prints reference 26, listed as Aza-β-homoleucine), 5.2 ^¶. In addition, at δOR [9], the “G Protein Selectivity (δOR vs µOR)” value was 9.9 [23].

Consider rubiscolin-6, for which, on δOR [5], the “β-arrestin 2 efficacy” value is recorded as 20%. At δOR [8] (literature value), the “Bias Factor δOR” value was 2.0.

Take Dmt-Tic-Gly-NH-Ph: the “selectivity for δORs over µORs” value at δOR [6] is at most 10 fold.
